This note sets out measurements from ChEMBL document CHEMBL1250475, “Inhibition of monoamine oxidase by indole and benzofuran derivatives” (Eur J Med Chem, 2010).

The target in series [1] is T1, Amine oxidase [flavin-containing] A (Homo sapiens, UniProt P21397).
T1 sequence (P21397 whole entry): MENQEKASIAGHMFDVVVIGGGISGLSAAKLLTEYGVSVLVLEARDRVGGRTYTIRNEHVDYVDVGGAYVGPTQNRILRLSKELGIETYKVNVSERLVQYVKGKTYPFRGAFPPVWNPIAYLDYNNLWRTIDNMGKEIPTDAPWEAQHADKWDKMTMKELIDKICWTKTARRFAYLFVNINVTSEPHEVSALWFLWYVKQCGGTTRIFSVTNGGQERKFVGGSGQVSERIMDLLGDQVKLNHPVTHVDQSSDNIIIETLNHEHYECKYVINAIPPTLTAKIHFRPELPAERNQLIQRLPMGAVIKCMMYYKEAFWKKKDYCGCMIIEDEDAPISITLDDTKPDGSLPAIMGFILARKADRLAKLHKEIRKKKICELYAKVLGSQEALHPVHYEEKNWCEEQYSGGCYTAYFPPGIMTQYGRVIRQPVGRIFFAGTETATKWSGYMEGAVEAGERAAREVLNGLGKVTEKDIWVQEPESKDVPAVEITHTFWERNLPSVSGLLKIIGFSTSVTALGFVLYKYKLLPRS
Description: Inhibition of human recombinant MAOA expressed in baculovirus infected BTI insect cells after 20 mins by spectrofluorimetric analysis.

For series [2], the target named is T2, Amine oxidase [flavin-containing] B (Homo sapiens, UniProt P27338).
T2 sequence (P27338 whole entry): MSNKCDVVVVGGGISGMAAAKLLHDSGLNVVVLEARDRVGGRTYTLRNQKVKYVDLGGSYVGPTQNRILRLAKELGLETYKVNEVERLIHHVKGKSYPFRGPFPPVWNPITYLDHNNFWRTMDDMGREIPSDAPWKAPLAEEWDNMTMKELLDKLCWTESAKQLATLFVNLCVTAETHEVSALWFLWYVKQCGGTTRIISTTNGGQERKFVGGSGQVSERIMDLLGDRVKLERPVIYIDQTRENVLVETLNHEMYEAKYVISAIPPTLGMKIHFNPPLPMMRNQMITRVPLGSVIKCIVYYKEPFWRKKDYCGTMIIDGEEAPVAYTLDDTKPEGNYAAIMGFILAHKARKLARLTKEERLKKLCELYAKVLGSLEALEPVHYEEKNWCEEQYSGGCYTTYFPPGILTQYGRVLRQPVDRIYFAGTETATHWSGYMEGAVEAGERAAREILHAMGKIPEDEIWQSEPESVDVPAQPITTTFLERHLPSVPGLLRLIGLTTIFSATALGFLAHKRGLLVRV
The series can be described thus: Inhibition of human recombinant MAOB expressed in baculovirus infected BTI insect cells after 20 mins by spectrofluorimetric analysis.

The species named for series [3] is Homo sapiens. Description: Selectivity ratio of Ki for human recombinant MAOA to Ki for human recombinant MAOB.
Series [4] addresses T2, Amine oxidase [flavin-containing] B. Description: Competitive inhibition of human recombinant MAOB expressed in baculovirus infected BTI insect cells at 0.015 to 0.06 uM by Lineweaver-Burke plot analysis.
Series [5] has the same target. The series can be described thus: Reversible inhibition of human recombinant MAOB expressed in baculovirus infected BTI insect cells at 2 times IC50 concentration preincubated for 60 mins measured after 15 mins. As to conditions: 0.25 h; call rule not given here.

Each structure is given as a SMILES string.

For `Cc1cc2cc(NC(=O)c3ccc[n+](C)c3)ccc2[nH]1`, in series [1], the IC50 came to 20.8 µM and the Ki stood at 5.47 µM.
`O=C(/C=C/c1cccc(Cl)c1)Oc1ccc2c(c1)CC(=O)O2`: in series [2], the half-inhibitory concentration (IC50) stood at 0.44 µM and the Ki was 0.19 µM. In addition, in series [3], the Selectivity ratio came to 5. In addition, in series [1], the IC50 was 3.9 µM and the Ki came to 1.03 µM.
Consider `Cc1cc2cc(NC(=O)c3ccc(Cl)c(Cl)c3)ccc2[nH]1`, for which the “inhibition (INH)” value in series [4] and in series [5] was “Active” in each case. Also, the IC50 in series [2] was determined as 0.06 µM; in series [1] it was 9.79 µM. The Ki came out at 0.03 µM in series [2] and 2.58 µM in series [1]. Further, the Selectivity ratio in series [3] worked out at 99.
As to `Cc1cc2cc(NC(=O)c3cccc(S(=O)(=O)O)c3)ccc2[nH]1`, the results for the IC50 in series [2] and in series [1] were 176 µM and 259 µM, respectively. In addition, the Ki was 75.7 µM in series [2] and 68.3 µM in series [1]. The Selectivity ratio in series [3] turned out to be 0.9.
The matching figures for `O=C(/C=C/c1ccccc1)Oc1ccc2c(c1)CC(=O)O2`: 1.2 µM, 12.5 µM, 0.52 µM, 3.29 µM and 6.
As for `Cc1cc2cc(NC(=O)c3ccccc3)ccc2[nH]1`, the IC50 in series [2] is 3.84 µM; in series [1], 150 µM. For the same molecule, the figures for the Ki in series [2] and in series [1] were 1.65 µM and 39.5 µM, respectively. Moreover, in series [3], the Selectivity ratio came out at 24.
On the same counts, the results for `Cc1cc2cc(NC(=O)C3CCCCC3)ccc2[nH]1` are 6.96 µM, 69.4 µM, 3 µM, 18.3 µM and 6.
As to `O=C1Cc2cc(OC(=O)c3cccc(Cl)c3)ccc2O1`, in series [2], the IC50 came to 0.99 µM and the Ki was found to be 0.43 µM. The “inhibition (INH)” value in series [5] is reported as “Active”. Also, the Selectivity ratio in series [3] was 5. In series [1], the IC50 was 7.66 µM and the Ki was determined as 2.02 µM.
With `O=C1Cc2cc(OC(=O)c3ccccc3)ccc2O1`, the results for the concentration for half-maximal inhibition (IC50) in series [2] and in series [1] were 8.89 µM and 11.6 µM, respectively. Further, the Ki was 3.83 µM in series [2] and 3.05 µM in series [1]. Further, the Selectivity ratio in series [3] came to 0.8.
On the same counts, the results for `Cc1cc2cc(NC(=O)c3cccc(Cl)c3)ccc2[nH]1` are 0.76 µM, 31 µM, 0.33 µM, 8.18 µM and 25.
On the same counts, the results for `Cc1cc2cc(NC(=O)/C=C/c3cccc(Cl)c3)ccc2[nH]1` are 9.83 µM, 7.67 µM, 4.23 µM, 2.02 µM and 0.5.
Consider `Cc1cc2cc(NC(=O)/C=C/c3ccccc3)ccc2[nH]1`, for which the IC50 in series [2] turned out to be 18.8 µM; in series [1], 663 µM. Moreover, the Ki in series [2] turned out to be 8.01 µM; in series [1], 175 µM. Moreover, the Selectivity ratio in series [3] worked out at 22.

The IC50 is the concentration that inhibits the measured activity by half. The Ki is a dissociation constant, usually derived from enzyme kinetics or from competition with a known ligand.
